Data published in US20260256860A1, “TRADITIONAL CHINESE MEDICINE COMPOSITION FOR TREATING AMYOTROPHIC LATERAL SCLEROSIS AND USE THEREOF” (HEBEI YILING MEDICAL RESEARCH INSTITUTE CO., LTD, priority 2023, published 2026).
Values joined by “and” are separate entries in the source; they are usually repeats but may differ in a detail not shown here. Equal entries are not always repeated.

Key:
Format in all cases: in vivo
[1] = tested on: SOD1-G93A transgenic mice; test: Time to onset of paralysis in SOD1-G93A transgenic mice; settings: Riluzole 0.02 g/kg gavage
Description: Neurological function was evaluated during the dosing phase using the Snow scoring method twice weekly. […]
The time from administration to the first occurrence of a neurological function score ≥3.5 was defined as the time to onset of paralysis. The mean time to onset of paralysis of animals was calculated. […] The paralysis delay rate for each drug group was also calculated according to the following formula:
The time from administration to the first occurrence of a neurological function score ≥3.5 was defined as the time to onset of paralysis. The mean time to onset of paralysis of animals was calculated. […]

[2] = tested on: SOD1-G93A transgenic mice; test: Neurological function score (Snow scoring) in SOD1-G93A transgenic mice; settings: Riluzole 0.02 g/kg gavage
Description: (§1) After ALS model mice were determined to have significant changes compared to negative control mice in behavioral test by combining literature as well as prior experience, they were randomly grouped according to their body weight. The drug administration was started and mice were observed.
(§2) The corresponding drug solution was administered via gavage using a syringe at a volume of 10 ml/kg. The model group and negative control group were administered with an equivalent volume of sterile injectable water. The administration dose for each animal was adjusted weekly according to the animal's latest weighed weight.
Neurological function was evaluated during the dosing phase using the Snow scoring method twice weekly. The specific criteria for neurological system scoring are as follows. • 1.0 point—Abnormal extension or tremors of hind limbs of the mouse when suspended by tail. • 1.5 points—Weakness of unilateral hind limb • 2.0 points—Weakness of bilateral hind limbs along with abnormal gait. • 2.5 points—Obvious weakness of unilateral hind limb. • 3.0 points—Obvious weakness of bilateral hind limbs. • 3.5 points—Paralysis in unilateral hind limb. • 4.0 points—Paralysis in bilateral hind limbs. • 5.0 points—Inability of mouse to right itself from a supine position within 20 seconds.

[3] = tested on: SOD1-G93A transgenic mice; test: Hanging test in SOD1-G93A transgenic mice; settings: Riluzole 0.02 g/kg gavage, 90 second cut-off
Description: as §1, §2
• 2.6.1 The tail suspension test was carried out to observe straightening reflex of limbs. […] The scoring criteria are as follows: • 0 points—No flexion of the hindlimbs observed. • 1 point—Flexion observed in unilateral hindlimb, with no obvious flexion in the other. • 2 points—Flexion observed in bilateral hindlimbs. Mice with a score of 2 points were considered to be in the symptomatic phase. The tail suspension test was stopped when all ALS mice reached a score of 2 points. • 2.6.2 Hanging Test: The mouse was placed on a 3-mesh screen. The screen was then rapidly inverted, causing the mouse to hang upside down, and the timer was started. A 90 second cut-off time was set. The mice with a hanging time of less than 90 seconds were noted, and the actual time they remained hanged was recorded. The hanging test was discontinued upon the occurrence of death in ALS mice. […] The severity of this abnormality correlates with the degree of muscle atrophy and loss of muscle strength. In this study, the onset of disease in transgenic mice was determined based on the results of the tail suspension test. Additionally, guided by literature review and previous experimental experience, each mouse was sequentially evaluated by both the tail suspension and hanging tests.

[4] = tested on: SOD1-G93A transgenic mice; test: Compound muscle action potential electrophysiology in SOD1-G93A transgenic mice; settings: Riluzole 0.02 g/kg gavage, 30 days
Description: • 1.3.1 Animal Strain: B6SJL-Tg (SOD1-G93A) 1 Gur/J (Stock Number: 002726) provided by The Jackson Laboratory (United States). […] Both males and females were included. • 1.3.4 Animal Age: 7-8 weeks old. • 1.3.5 Animal Weight: At the start of dosing the body weight of male mice was 23.9-31.3 g, and the body weight of female mice was 17.7-25.4 g. • 1.3.6 Animal Source: Purchased from The Jackson Laboratory (United States). Breeding was conducted by Jiangsu GemPhanmatech Co., Ltd. • 1.3.7 Animal Certification of Quality, issuing authority, and receipt date: Certification number 320727210100609023. License number SCXK (Jiangsu) 2018-0008. Issuing authority: Jiangsu GemPharmatech Co., Ltd. Receipt date: Oct. 13, 2021. • 1.3.8 Feeding Conditions: Mice were reared in cages at the Innovative Drug Evaluation Center of Hebei Research Institute of Integrated Traditional Chinese and Western Medicine. License Number: SYXK (Hebei) 2020-006. Lighting: 12 h/day. Temperature: 20-26° C. Relative Humidity: 40%-70%. • 1.3.9 Quarantine Process: Animals were subjected to adaptive feeding for at least 5 days. […] Experimental Animal Production License Number: SCXK (Beijing) 2019-0003. Product Batch Number: 21073213. Expiration date: 2022 Jan. 3. • 1.3.11 Water: Clean water prepared by the ROB-B drinking water system for laboratory animal was provided, and filled in water bottles for free drinking. The drinking water was detected annually for all indicators, including mainly microbiological indicators, toxicological indicators, sensory characteristics, and general chemical parameters, and the detection was commissioned to a qualified institution. Microbial limit detection was performed every 2 months, which was commissioned to the Quality Control Department of Shijiazhuang Yiling Pharmaceutical Co., Ltd. The detection reports were stored by the animal department and archived annually. • 1.3.12 Bedding: Corn cob bedding (common grade) provided by Beijing Keao Xieli Feed Co., Ltd., was sterilized by high temperature and high pressure before use. Experimental Animal Production License Number: SCXK (Beijing) 2020-0010. Batch Number: 21099811. • 1.3.13 Marking: Mice were marked with ear tags, provided by Globalebio (Beijing) Technology Co., Ltd.
as §1
The drug was orally administered via gavage, consistent with the clinically recommended oral administration.
The administration dose for mice was 10 times the clinical dose, approximately 0.02 g/kg. The used administration volume was 10 ml/kg and administration concentration was 0.02 g/10 ml. […] During the preparation, one tablet was taken, ground with sterile injectable water and adjusted to a final volume of 25 ml. The obtained liquor can be used based on the number of animals.
The proposed clinical dose of TCM-073 was 18 g of raw drug/day. This test set three doses: low dose (1.5 g raw drug/kg), medium dose (3.0 g raw drug/kg), and high dose (6.0 g raw drug/kg), corresponding to 5, 10, and 20 times the clinical dose, respectively (See Table 14 for details). An appropriate amount of the drug was weighed and ground using sterile injectable water as the solvent to prepare high, medium, and low doses.
as §2
Based on preliminary experimental experience, literature review, and the disease characteristics of this mouse strain, the administration was started when the mice were 70 days old. […]

[5] = tested on: SOD1-G93A transgenic mice; test: Serum malondialdehyde (MDA) in SOD1-G93A transgenic mice; settings: Mus musculus, po, 720 h; read-out: % Inhibition rate (on oxidative damage, from MDA content)
Description: Blood of mice was collected by removal of eyeball. The blood samples were allowed to stand until supernatant separated out, and then centrifuged at 3,000 rpm for 10 minutes at 4° C. to isolate serum. The serum was aliquoted into EP tubes and stored in an ultra-low temperature refrigerator (−80° C.). MDA content was measured. The inhibition rate on oxidative damage by each drug group was calculated according to MDA content, following the formula of.
Blood of mice was collected by removal of eyeball. Blood samples were allowed to stand until supernatant separated out, and then centrifuged at 3,000 rpm for 10 minutes at 4° C. to isolate serum. The MDA content was measured using a kit, and the inhibition rate on oxidative damage by each drug group was calculated according to MDA content.

[6] = tested on: SOD1-G93A transgenic mice; test: HE staining of sciatic nerve, lesion grading, SOD1-G93A transgenic mice; design: key to Axonal degeneration with myelin degeneration, lesion grade of individual animal: mild (+); moderate (++); moderately severe (+++); severe (++++); settings: for Lesion score (divided by gender): median of lesion grade points; for Axonal degeneration with myelin degeneration, lesion grade of individual animal: sciatic nerve HE, individual animals, listed as Positive drug control group
Description: as §1, §2
(§3) After 30 days of administration, electrophysiological measurements were performed, and tissue material was collected for subsequent detections. • 2.7.1 Electrophysiological parameters
HE staining was carried out to observe gastrocnemius muscle and sciatic nerve. Toluidine blue staining was carried out to observe the morphology and number of motor neurons in the spinal cord. • 2.7.4 Immunofluorescence

[7] = tested on: SOD1-G93A transgenic mice; test: Immunofluorescence of gastrocnemius muscle and spinal cord, SOD1-G93A transgenic mice; settings: vs model control; Riluzole 0.02 g/kg; TCM-073 each administration group (1.5, 3.0, 6.0 g raw drug/kg); 30 days
Description: as §1, §2, §3
Based on the amount of spinal cord and muscle tissues harvested from mice, neuromuscular junction, stem cell regeneration, microglial senescence and degree of myelin and neuronal damage and repair were detected. For example, the muscular presynaptic marker (synaptotagmin-2) and the acetylcholine receptor (AChR) marker (α-BTX) were co-stained, the satellite cell marker (Pax7) and laminin 2a were co-stained, the myelin marker (myelin basic protein, MBP) was stained, and the neuronal marker (beta-III Tubulin, also known as Tuj-1) was stained. • 2.7.5 Molecular biological indicators
The muscular presynaptic marker (synaptotagmin-2) and acetylcholine receptor (AChR) marker (α-BTX) of the gastrocnemius muscle were detected by the immunofluorescence.
The satellite cell marker (Pax7) and laminin 2α of the gastrocnemius muscle were detected by the immunofluorescence.
The myelin marker (myelin basic protein, MBP) of the spinal cord was detected by the immunofluorescence.
The neuronal marker (beta-III Tubulin, also known as Tuj-1) of the spinal cord was detected by the immunofluorescence.

[8] = tested on: SOD1-G93A transgenic mice; test: Immunoblotting of MBP and SV2A in spinal cord, SOD1-G93A transgenic mice; settings: Riluzole 0.02 g/kg gavage, 30 days, negative control 1.00
Description: as §1, §2, §3
Based on the amount of spinal cord tissue harvested from mice, myelin- and synapse-related molecular biological indicators were detected. The myelin- and synapse-related indicators included myelin basic protein (MBP) and synaptic vesicle protein 2A(SV2A).
Based on the amount of spinal cord tissue harvested from mice, myelin- and synapse-related molecular biological indicators, including myelin basic protein (MBP) and synaptic vesicle protein 2A (SV2A), were detected.

[9] = Riluzole 0.02 g/kg gavage, female
[10] = Riluzole 0.02 g/kg gavage, male

## Nc1nc2ccc(OC(F)(F)F)cc2s1 [Riluzole]
[1]; female
  Time to onset of paralysis: 139.6 ± 5.7 days
[1]; male
  Time to onset of paralysis: 129.2 ± 18.9 days
[2]; 31 d of administration
  Neurological function score: 2.2 ± 0.4
[2]; 34 d of administration
  Neurological function score: 2.2 ± 0.4
[2]; 39 d of administration
  Neurological function score: 2.2 ± 0.5
[2]; 42 d of administration
  Neurological function score: 2.3 ± 0.5
[2]; 46 d of administration
  Neurological function score: 2.2 ± 0.4
[3]; 31 d of administration
  Hanging time: 63.3 ± 29.2 s
[3]; 34 d of administration
  Hanging time: 57.6 ± 2.6 s
[3]; 39 d of administration
  Hanging time: 46.5 ± 29.8 s
[3]; 42 d of administration
  Hanging time: 40.8 ± 30.7 s
[3]; 46 d of administration
  Hanging time: 33.8 ± 27.2 s
[4]; female
  Peak value of action potential: 10.4 ± 4.0
  Time course within region of interest of action potential: 0.0018 ± 0.0002
  Wave amplitude of action potential: 14.8 ± 5.6
[4]; male
  Peak value of action potential: 8.8 ± 2.2
  Time course within region of interest of action potential: 0.0016 ± 0.0001
  Wave amplitude of action potential: 11.2 ± 3.9
[4]; no division by gender
  Peak value of action potential: 9.6 ± 3.3
  Time course within region of interest of action potential: 0.0017 ± 0.0002
  Wave amplitude of action potential: 13.0 ± 5.0
[5]
  inhibition at 20 mg/kg: 20%
[6]; Riluzole 0.02 g/kg gavage, 6 samples
  Sciatic nerve axonal degeneration with myelin degeneration, number of samples per lesion grade: myelin degeneration (1 sample: +++, 4 samples: ++, 1 sample: +).
[6]; [9]
  Lesion score (divided by gender): 2
  Axonal degeneration with myelin degeneration, lesion grade of individual animal: + and ++ (2×)
[6]; [10]
  Lesion score (divided by gender): 2
  Axonal degeneration with myelin degeneration, lesion grade of individual animal: ++ (2×) and +++
[6]; Riluzole 0.02 g/kg gavage, median of lesion grade points of the group
  Group Score (lesion): 2
[6]; Riluzole 0.02 g/kg, TCM-073 high dose 6.0 g raw drug/kg
  Sciatic nerve pathological changes (HE staining) compared to the model control group: slightly milder
[7]
  Co-localization degree of synaptotagmin-2 and α-BTX (neuromuscular junction), gastrocnemius muscle: increased the co-localization degree of neuromuscular junctions
  MBP (myelin marker) expression in spinal cord, immunofluorescence: increased the expression levels of the myelin marker
  Number of Pax7-positive satellite cells in the gastrocnemius muscle: increased the number of positive satellite cells in the gastrocnemius muscle
  Tuj-1 (neuronal marker) expression in spinal cord, immunofluorescence: increased the expression levels of the myelin marker and neuronal marker
[8]
  MBP content in spinal cord: 0.99 ± 0.62
  SV2A content in spinal cord: 0.41 ± 0.15
